Reference: patent publication US20080318791A1, “Use of Lactate Esters for Improving the Action of Agricultural Pesticides” (Bayer Cropscience Aktiengesellschaft, priority 2005, published 2008)

Assays:
[1] = system: primary leaves of barley seedlings; experiment: Retention test of spray liquor on poorly wettable leaf
Method: Retention is to be understood as meaning the adherence of spray mists to surfaces, for example plants or plant parts (leaves), after spray application. The retention depends both on the composition of the spray liquor and on the nature of the treated surface. The retention of a spray liquor (aqueous solution of the stated additive) was determined using a poorly wettable leaf in comparison to a reference surface with complete retention. The reported results were obtained using primary leaves of barley seedlings which had been cultivated in a greenhouse (18° C., 80% atmospheric humidity, 16 h of light). Individual cut leaves were subjected to standard treatment in a spray cabin using a track sprayer-flat-jet nozzle: XR 11002 VS; pressure: 3 bar; […]. Weight and leaf area were determined prior to the treatment, and the adhering spray coating was correspondingly determined gravimetrically and normalized to leaf area. A nonwoven-fabric paper cloth serves as reference surface for 100% retention. Per spray liquor variant, at least 5 individual leaves were treated, and the calculated retentions were then averaged. A test series where pure tap water as spray liquor was sprayed onto the barley seedling leaves was carried out as negative control (lowest retention).

[2] = system: enzymatically isolated leaf cuticles of the top face of pear leaves; experiment: Desorption test: influence of additives on tracer mobility in the cuticle (penetration enhancer / plasticizer effect)
Text: Additives which act as penetration enhancers at the level of the cuticle may be referred to below as accelerator additives (cf. Schönherr and Baur, 1994, Pesticide Science 42, 185-208). The feature of accelerator additives is their ability to penetrate from the aqueous spray liquor and/or from the spray covering into the cuticle and thereby to increase the mobility of the active compounds in the cuticle. Other additives such as polyethylene glycol, in contrast, only act on the spray covering (via the liquid phase) or act only as wetting agents, such as, for example, sodium dodecylsulphate.
This test determines the influence of additives on the penetration properties of other substances at the level of the cuticle. The mobility of a test substance in the cuticle is measured with and without an additive, by way of a desorption method. The method is published in detail in the literature (Baur et al., 1997, Pesticide Science, 51, 131-152) and only the principles and any deviations are described below.
As a test substance with the function of a tracer a selection was made here of a radiolabelled weak organic acid. Plant material used comprises the enzymatically isolated leaf cuticles of the top face of pear leaves from outdoor trees. […] This inner side readily takes up the small radioactive amount of the tracer in the undissociated acid form. […]

## CCCCC(CC)COC(=O)C(C)O (centres unmarked) [2-Ethylhexyl lactate]
[1]; 0.3 g/l
  Effect on retention (in words): increased the retention considerably
[1]; additive 0.3 g/l in water, 100% = nonwoven-fabric paper cloth
  Retention: 60.6%
[1]; additive 3 g/l + 0.2 g/l Pluronic PE 10500 emulsifier
  Retention: 61%
[2]; Table 1
  Effectiveness as cuticle plasticizer (in words): very effective as a plasticizer
[2]; additive concentration 1 g/l, radiolabelled weak organic acid tracer
  Mean effect (ratio of desorption slopes with additive to without additive): 45
